Results from paper PMC9851200, “Multiparameter phenotypic screening for endogenous TFEB and TFE3 translocation identifies novel chemical series modulating lysosome function” (Autophagy, 2022).

How the values were obtained:
Assay type in all cases: binding
[1] = target: T1, kinases (KINOMEscan panel) (Homo sapiens, UniProt O75385); conditions: NEW KINOMEscan
T1 sequence (O75385 1-1050): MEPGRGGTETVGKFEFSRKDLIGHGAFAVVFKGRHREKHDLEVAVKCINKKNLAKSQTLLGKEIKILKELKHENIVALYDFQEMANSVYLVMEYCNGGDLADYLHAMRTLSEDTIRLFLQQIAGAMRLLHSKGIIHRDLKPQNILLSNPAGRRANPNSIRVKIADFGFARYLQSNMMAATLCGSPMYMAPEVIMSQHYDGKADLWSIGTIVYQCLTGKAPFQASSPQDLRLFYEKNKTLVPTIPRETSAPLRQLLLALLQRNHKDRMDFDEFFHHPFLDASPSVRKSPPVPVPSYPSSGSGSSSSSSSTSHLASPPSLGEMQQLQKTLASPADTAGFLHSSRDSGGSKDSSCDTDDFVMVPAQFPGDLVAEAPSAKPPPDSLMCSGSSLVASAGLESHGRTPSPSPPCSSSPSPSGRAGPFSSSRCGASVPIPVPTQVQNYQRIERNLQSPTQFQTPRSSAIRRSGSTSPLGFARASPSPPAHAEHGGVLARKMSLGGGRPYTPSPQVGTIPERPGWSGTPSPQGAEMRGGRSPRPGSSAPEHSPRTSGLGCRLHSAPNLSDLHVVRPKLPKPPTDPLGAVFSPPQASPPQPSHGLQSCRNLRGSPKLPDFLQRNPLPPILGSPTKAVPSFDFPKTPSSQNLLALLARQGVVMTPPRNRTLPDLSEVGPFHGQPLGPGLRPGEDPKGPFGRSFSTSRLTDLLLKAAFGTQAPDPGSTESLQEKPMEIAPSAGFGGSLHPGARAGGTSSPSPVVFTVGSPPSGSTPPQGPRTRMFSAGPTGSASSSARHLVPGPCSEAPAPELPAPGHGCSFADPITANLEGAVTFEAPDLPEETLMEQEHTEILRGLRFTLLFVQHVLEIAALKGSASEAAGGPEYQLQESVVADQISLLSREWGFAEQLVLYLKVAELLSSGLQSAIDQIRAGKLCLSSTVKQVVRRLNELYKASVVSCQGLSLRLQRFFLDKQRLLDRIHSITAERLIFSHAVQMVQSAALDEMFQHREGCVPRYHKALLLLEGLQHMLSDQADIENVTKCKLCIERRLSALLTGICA

[2] = target: T2, kinases (KINOMEscan panel) (Homo sapiens, UniProt Q92772); conditions: CDKL2; NEW KINOMEscan
T2 sequence (Q92772 1-493): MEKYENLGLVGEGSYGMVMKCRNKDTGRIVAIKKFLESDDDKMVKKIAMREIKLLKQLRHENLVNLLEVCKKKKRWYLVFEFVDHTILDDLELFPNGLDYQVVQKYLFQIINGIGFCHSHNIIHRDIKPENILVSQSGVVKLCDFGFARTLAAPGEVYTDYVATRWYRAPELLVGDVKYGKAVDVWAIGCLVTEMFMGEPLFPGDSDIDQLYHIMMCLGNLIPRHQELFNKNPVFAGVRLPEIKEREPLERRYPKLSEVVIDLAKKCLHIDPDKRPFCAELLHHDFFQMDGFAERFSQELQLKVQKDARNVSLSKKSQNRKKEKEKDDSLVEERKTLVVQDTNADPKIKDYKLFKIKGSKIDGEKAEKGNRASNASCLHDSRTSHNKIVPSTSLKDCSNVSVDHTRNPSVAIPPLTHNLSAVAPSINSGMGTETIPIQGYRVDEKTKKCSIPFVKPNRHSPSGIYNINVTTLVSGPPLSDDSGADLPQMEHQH

[3] = target: T3, kinases (KINOMEscan panel) (Homo sapiens, UniProt Q56UN5); conditions: NEW KINOMEscan
T3 sequence (Q56UN5 1-1328): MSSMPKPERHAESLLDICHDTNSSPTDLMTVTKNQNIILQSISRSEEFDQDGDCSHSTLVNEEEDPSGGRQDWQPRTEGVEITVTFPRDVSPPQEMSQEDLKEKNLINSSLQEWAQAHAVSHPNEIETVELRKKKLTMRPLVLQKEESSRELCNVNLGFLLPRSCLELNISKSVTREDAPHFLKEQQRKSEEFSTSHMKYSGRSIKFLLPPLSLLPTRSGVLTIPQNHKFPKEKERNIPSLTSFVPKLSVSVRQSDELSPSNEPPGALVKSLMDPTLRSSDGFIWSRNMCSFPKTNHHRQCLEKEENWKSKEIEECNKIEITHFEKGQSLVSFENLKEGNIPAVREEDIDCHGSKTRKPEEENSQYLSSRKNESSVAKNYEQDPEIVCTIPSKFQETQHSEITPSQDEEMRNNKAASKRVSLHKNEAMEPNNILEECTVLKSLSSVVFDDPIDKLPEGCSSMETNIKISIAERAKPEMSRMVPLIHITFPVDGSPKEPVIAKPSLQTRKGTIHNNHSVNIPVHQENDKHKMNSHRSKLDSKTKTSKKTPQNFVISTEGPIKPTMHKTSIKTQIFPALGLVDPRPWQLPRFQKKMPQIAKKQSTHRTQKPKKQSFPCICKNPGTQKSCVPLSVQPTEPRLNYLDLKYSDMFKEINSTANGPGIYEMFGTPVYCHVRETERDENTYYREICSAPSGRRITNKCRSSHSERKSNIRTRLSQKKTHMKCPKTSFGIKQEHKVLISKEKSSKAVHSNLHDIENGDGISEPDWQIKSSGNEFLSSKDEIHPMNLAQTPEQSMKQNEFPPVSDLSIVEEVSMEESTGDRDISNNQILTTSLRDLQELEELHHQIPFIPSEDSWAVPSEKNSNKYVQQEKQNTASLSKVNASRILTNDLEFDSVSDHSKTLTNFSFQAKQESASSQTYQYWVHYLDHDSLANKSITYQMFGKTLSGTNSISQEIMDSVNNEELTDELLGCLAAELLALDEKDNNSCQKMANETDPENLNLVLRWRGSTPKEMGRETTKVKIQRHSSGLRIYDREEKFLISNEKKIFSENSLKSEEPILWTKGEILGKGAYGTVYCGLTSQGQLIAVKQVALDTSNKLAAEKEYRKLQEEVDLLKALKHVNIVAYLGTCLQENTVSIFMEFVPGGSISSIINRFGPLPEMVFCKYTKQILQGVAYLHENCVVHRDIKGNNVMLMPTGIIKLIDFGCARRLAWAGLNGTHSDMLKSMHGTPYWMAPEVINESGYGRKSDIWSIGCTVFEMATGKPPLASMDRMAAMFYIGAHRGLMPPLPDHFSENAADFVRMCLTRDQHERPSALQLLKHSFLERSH

[4] = target: kinases (KINOMEscan panel) (Homo sapiens, UniProt P42336); conditions: kinase PIK3CA; NEW KINOMEscan
Chain of kinases (KINOMEscan panel) (Homo sapiens, UniProt P42336) (P42336 whole entry): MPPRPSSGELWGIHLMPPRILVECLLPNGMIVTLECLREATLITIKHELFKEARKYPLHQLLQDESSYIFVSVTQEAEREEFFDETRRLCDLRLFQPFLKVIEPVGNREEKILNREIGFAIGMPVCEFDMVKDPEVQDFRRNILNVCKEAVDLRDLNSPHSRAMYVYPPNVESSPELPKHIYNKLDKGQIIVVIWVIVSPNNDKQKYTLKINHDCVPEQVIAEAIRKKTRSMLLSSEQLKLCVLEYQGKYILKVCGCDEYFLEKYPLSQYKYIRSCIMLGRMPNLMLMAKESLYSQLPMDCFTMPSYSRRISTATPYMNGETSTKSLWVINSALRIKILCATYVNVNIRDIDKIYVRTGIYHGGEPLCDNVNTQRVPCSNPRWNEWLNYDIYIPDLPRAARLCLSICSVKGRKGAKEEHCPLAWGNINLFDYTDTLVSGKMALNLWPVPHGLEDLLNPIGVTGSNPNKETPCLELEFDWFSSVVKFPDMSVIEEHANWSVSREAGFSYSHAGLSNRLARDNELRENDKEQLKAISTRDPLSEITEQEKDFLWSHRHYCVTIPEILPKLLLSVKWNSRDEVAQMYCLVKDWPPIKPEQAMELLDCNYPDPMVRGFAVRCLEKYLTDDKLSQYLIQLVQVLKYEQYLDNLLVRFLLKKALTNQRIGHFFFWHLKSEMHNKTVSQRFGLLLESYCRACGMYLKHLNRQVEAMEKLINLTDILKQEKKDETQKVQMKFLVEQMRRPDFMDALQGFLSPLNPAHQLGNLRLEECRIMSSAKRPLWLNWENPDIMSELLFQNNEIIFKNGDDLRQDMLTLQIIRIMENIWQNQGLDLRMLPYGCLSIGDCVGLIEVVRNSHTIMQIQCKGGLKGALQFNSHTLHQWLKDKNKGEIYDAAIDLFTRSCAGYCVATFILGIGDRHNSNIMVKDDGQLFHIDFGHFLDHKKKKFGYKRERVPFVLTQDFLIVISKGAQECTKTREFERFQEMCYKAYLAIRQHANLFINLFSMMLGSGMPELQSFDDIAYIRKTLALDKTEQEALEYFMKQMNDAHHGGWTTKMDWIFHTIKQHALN

[5] = target: kinases (KINOMEscan panel) (Homo sapiens, UniProt Q9Y3S1); conditions: WNK2; NEW KINOMEscan
Chain of kinases (KINOMEscan panel) (Homo sapiens, UniProt Q9Y3S1) (Q9Y3S1 whole entry): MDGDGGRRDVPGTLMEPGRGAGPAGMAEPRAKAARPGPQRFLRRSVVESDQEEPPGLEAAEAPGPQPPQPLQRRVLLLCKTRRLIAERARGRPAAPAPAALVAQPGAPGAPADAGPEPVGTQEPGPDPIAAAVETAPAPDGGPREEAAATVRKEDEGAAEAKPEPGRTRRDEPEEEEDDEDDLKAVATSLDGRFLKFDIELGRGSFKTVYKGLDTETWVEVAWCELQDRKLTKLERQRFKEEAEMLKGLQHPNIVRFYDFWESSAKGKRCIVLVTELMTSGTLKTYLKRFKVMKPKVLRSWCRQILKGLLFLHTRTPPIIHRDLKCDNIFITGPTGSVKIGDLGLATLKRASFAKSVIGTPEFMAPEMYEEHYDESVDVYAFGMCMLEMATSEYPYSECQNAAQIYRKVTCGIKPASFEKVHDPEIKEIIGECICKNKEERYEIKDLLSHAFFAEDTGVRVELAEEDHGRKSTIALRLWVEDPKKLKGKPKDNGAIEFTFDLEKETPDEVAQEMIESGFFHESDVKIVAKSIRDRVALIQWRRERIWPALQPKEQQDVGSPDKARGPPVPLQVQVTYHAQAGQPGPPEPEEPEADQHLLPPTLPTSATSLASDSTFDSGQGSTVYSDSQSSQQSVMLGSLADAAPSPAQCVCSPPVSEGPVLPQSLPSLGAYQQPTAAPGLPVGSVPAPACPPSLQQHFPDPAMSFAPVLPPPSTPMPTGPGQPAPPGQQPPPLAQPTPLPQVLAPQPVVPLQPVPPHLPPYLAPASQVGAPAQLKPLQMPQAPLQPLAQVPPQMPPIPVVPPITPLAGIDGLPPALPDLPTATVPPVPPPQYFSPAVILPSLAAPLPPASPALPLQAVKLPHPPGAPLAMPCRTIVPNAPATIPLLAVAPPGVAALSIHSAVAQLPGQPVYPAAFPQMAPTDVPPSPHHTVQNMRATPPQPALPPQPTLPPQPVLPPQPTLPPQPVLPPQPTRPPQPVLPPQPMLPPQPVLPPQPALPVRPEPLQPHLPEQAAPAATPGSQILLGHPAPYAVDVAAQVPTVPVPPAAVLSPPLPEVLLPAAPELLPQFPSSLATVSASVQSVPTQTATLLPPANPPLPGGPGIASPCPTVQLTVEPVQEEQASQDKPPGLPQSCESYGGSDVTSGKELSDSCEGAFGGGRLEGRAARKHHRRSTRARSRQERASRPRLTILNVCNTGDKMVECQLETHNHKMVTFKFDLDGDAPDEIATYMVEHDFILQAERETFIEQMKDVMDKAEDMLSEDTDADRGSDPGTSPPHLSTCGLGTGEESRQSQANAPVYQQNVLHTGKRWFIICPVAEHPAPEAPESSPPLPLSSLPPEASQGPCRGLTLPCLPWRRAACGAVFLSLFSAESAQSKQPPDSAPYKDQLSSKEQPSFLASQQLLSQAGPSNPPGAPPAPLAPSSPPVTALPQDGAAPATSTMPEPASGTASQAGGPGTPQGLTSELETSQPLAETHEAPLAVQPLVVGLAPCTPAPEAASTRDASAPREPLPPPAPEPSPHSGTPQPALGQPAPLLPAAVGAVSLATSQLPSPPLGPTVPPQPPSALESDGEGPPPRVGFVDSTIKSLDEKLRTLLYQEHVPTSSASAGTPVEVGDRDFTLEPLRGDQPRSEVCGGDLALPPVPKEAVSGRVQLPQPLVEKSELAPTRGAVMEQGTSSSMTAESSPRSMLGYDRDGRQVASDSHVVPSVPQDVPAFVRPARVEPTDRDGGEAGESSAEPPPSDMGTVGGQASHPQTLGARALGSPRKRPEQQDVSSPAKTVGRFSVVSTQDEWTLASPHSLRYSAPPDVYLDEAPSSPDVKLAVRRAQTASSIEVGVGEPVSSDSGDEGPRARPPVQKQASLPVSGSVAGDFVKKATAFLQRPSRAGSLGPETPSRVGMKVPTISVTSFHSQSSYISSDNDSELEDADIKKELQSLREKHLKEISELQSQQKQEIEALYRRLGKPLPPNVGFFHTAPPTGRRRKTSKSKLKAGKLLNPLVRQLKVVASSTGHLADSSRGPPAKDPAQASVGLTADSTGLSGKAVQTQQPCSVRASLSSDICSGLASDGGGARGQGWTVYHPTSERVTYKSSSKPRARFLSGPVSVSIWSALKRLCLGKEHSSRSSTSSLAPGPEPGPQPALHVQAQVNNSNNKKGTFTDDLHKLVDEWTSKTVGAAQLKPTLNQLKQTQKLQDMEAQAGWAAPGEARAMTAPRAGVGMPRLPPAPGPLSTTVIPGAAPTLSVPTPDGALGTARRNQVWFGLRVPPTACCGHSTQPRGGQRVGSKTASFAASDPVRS

SMILES	KINOMEscan ULK1 [1]	KINOMEscan CDKL2 [2]	KINOMEscan MAP3K19 [3]	KINOMEscan PIK3CA [4]	KINOMEscan WNK2 [5]
Cc1cccc(-c2nc(Nc3ccc4nn(C)cc4c3)c3ccccc3n2)n1 [NK167]	8	0	0	0	0
Cc1cccc(-c2nc(N(C)c3ccc4ncsc4c3)c3ccccc3n2)n1 [NK-161]	18	0	0	0	0
